We go through 23 compounds from patent US4239767A, “Antimycotic diaryloxy-imidazolyl-O,N-acetals” (Bayer Aktiengesellschaft, priority 1974, dated 1980).

Values after ≈ are worked out from the molar mass of the structure shown.

One assay has as its system candidosis. The assay is described as follows: in vivo action on oral administration, candidosis of mice. Particulars: 100 mg/kg of body weight, twice daily, Control 5. An excerpt:
(§1) The table which follows summarizes in the vivo action of the preparations claimed on oral administration--for the models of candidosis of mice and trichophytia of mice--and on local administration--for the model of trichophytia of guinea-pigs.

For assay [1], the system named is trichophytia. Put plainly: in vivo action on local administration, trichophytia of guinea-pigs. To be noted: 1% strength solution once a day from the 3rd to the 13th day after infection, Control pronounced dermatophytosis. Details: key: ++++: very good action = no sign of; +++: good action = very slight sign of; ++: action = slight loss of hair; +: slight action = loss of hair, squamation.
Text: as §1

In assay [2] the test system is trichophytia. The assay is described as follows: in vivo action on oral administration, trichophytia of mice. To be noted: 100 mg/kg of body weight, twice daily, Control pronounced dermatophytosis. Details: key: ++++: very good action = no sign of; +++: good action = very slight sign of; ++: action = slight loss of hair; +: slight action = loss of hair, squamation.
Text: as §1

The subject of a further assay is Torulopsis glab. The assay is described as follows: in vitro series dilution test (MIC), Torulopsis glab. It is filed as cell-based. Particulars: 28° C., 24-96 hours, 10^3 germs/ml; read-out: MIC values when used against Torulopsis glab. As to the method: (§2) The in vitro test was carried out as a series dilution test. Amount inoculated: 10^3 germs/ml. The nutrient substrates used were Sabouraud's milieu d'epreuve, meat stock/glucose bouillon, malt extract agar and Francis's blood agar. The incubation temperature was 28° C. and the incubation time 24-96 hours.

Assay [3] concerns Trich. ment. Put plainly: in vitro series dilution test (MIC), Trich. ment. It is filed as cell-based. Particulars: Trichophyton mentagrophytes; 28° C., 24-96 hours, 10^3 germs/ml; read-out: MIC values when used against Trich. ment. The procedure: as §2
A further assay deals with Cand. alb. Put plainly: in vitro series dilution test (MIC), Cand. alb. Format: cell-based. Particulars: 28° C., 24-96 hours, 10^3 germs/ml; read-out: MIC values when used against Cand. alb. As to the method:
as §2

In a further assay the test system is Sporothrix Schenckii. The assay is described as follows: in vitro series dilution test (MIC), Sporothrix Schenckii. It is filed as cell-based. To be noted: 28° C., 24-96 hours, 10^3 germs/ml, read-out: MIC values when used against Sporothrix Schenckii. The procedure:
as §2

A further assay concerns Asp. fum. The assay is described as follows: in vitro series dilution test (MIC), Asp. fum. It is filed as cell-based. To be noted: Aspergillus fumigatus; 28° C., 24-96 hours, 10^3 germs/ml; read-out: MIC values when used against Asp. fum. The procedure: as §2
Assay [4] has as its system Trich. ment. Put plainly: sporocidal action, Trich. ment. spores. It is filed as cell-based, Trichophyton mentagrophytes. Particulars: 10 γ of preparation/ml, 72 hours; Control 10^5 = mycelium. The procedure: (§3) About 10^4 spores of Trich. ment. or Trich. Quinckeanum or Aspergillus fumigatus per ml are suspended in physiological NaCl solution and the stated preparations are added in concentrations of 1, 5, 10, 50 and 100 y/ml of suspending solution. The spore suspensions are incubated for 24, 48, 72, 96, 120 and 240 hours, 0.1 ml are withdrawn per concentration and per tube after the stated incubation times and spread homogeneously on malt extract Petri dishes, and the number of spores which still germinate is counted, after 48 hours' incubation time at 28° C., in comparison to untreated controls. The table which follows lists, for the individual preparations, the number of spores which still germinate after an exposure period of 72 hours at preparation concentrations of 10 γ/ml.

The test system of another assay is Aspergillus fum. The assay is described as follows: sporocidal action, Aspergillus fumigatus spores. It is filed as cell-based. Particulars: 10 γ of preparation/ml, 72 hours; Control 10^5 = mycelium. The procedure:
as §3

The subject of another assay is spores. To be noted: prior art / commercially available products; cited from earlier work.

As to `CC(C)(C)C(=O)C(Oc1c(Cl)cc(-c2ccc(Br)cc2)cc1Br)n1ccnc1` (stereo not drawn) [drawing 21], the “Therapeutic activity, candidosis, % survival” value in the assay with candidosis was determined as 40%. Further, the “Therapeutic activity, trichophytia, local application” value with trichophytia [1] is “++”. Also, the “Therapeutic activity, trichophytia, oral administration” value in the assay with trichophytia [2] is listed as “+”.
On to `CC(C)(C)C(O)C(Oc1ccc(-c2ccc(Cl)cc2)cc1)n1ccnc1` (stereo not drawn) [drawing 8], for which the MIC (in general, the lowest concentration found to suppress growth) was 4 µg/mL (≈ 10.8 µM) in the assay on Torulopsis glab.; under 1 µg/mL in the assay with Trich. ment. [3]; 4 µg/mL (≈ 10.8 µM) with Cand. alb.; 0.1 µg/mL (≈ 0.27 µM) in the assay on Sporothrix Schenckii; 2 to 4 µg/mL (≈ 5.39 to 10.8 µM) in the assay on Asp. fum..
On to `CC(C)(C)C(O)C(Oc1ccc(Cc2ccccc2)cc1)n1ccnc1` (stereo not drawn) [drawing 23], for which the “Number of spores still capable of germination, Trich. ment.” value (shortened to “Number … Trich. ment.”) with Trich. ment. [4] was determined as 110. In addition, the “Number of spores still capable of germination, Aspergillus fum.” value (from here on “Number … Aspergillus fum.”) in the assay with Aspergillus fum. stood at 40.
Consider `CC(C)(C)C(O)C(Oc1ccc(S(=O)(=O)c2ccccc2)cc1)n1ccnc1` (stereo not drawn) [drawing 17], for which the “Therapeutic activity, candidosis, % survival” value with candidosis is reported as 80%. Further, the “Therapeutic activity, trichophytia, local application” value in the assay on trichophytia [1] is “+++”. Further, the “Therapeutic activity, trichophytia, oral administration” value in the assay with trichophytia [2] is recorded as “++”.
As for `CC(C)(C)C(=O)C(Oc1c(Cl)cc(-c2ccc(Br)cc2)cc1Br)n1ccnc1` (stereo not drawn) [drawing 14], the MIC turned out to be 4 µg/mL (≈ 7.6 µM) with Torulopsis glab.; 8 µg/mL (≈ 15.2 µM) in the assay on Trich. ment. [3]; 8 µg/mL (≈ 15.2 µM) with Cand. alb.; 4 µg/mL (≈ 7.6 µM) in the assay on Sporothrix Schenckii; 4 µg/mL (≈ 7.6 µM) in the assay with Asp. fum..
`CC(C)(C)C(O)C(Oc1ccc(-c2ccc(Cl)cc2)cc1)n1ccnc1` (stereo not drawn) [drawing 15]: the “Therapeutic activity, candidosis, % survival” value in the assay on candidosis came out at 80%. For the same compound, the “Therapeutic activity, trichophytia, local application” value in the assay with trichophytia [1] is “++++”. For the same compound, the “Therapeutic activity, trichophytia, oral administration” value in the assay on trichophytia [2] was “+++”.
In the case of `CC(C)(C)C(=O)C(Oc1ccc(Cc2ccccc2)cc1)n1ccnc1` (stereo not drawn) [drawing 19], the “Therapeutic activity, candidosis, % survival” value in the assay with candidosis is listed as 50%. The “Therapeutic activity, trichophytia, local application” value in the assay with trichophytia [1] is “++”. Also, the “Therapeutic activity, trichophytia, oral administration” value in the assay with trichophytia [2] is recorded as “+++”.
With `C[C@@H]1[C@H](O)[C@@H](C)/C=C/C=C/CC/C=C/C=C/C=C/C=C/C(O[C@H]2O[C@H](C)[C@@H](O)[C@H](N)[C@@H]2O)CC2O[C@](O)(CC(O)C(O)CCC(O)CC(O)CC(O)CC(=O)O[C@H]1C)CC(O)C2C(=O)O` (stereo partly drawn) [Nystatin], the sporocidal activity entry in the assay with spores is “not present”.
Take `CC(C)(C)C(O)C(Oc1ccc(Cc2ccccc2)cc1)n1ccnc1` (stereo not drawn) [drawing 9]: the MIC in the assay on Torulopsis glab. was 4 µg/mL (≈ 11.4 µM); with Trich. ment. [3], under 1 µg/mL; with Cand. alb., 4 µg/mL (≈ 11.4 µM); in the assay on Sporothrix Schenckii, 0.5 µg/mL (≈ 1.43 µM); in the assay on Asp. fum. it was under 1 µg/mL.
On to `CC(C)(C)C(=O)C(Oc1ccc(S(=O)(=O)c2ccccc2)cc1)n1ccnc1` (stereo not drawn) [drawing 13], for which the MIC with Torulopsis glab. amounted to 2 µg/mL (≈ 5.02 µM); in the assay on Trich. ment. [3], 64 µg/mL (≈ 161 µM); in the assay on Cand. alb., 4 µg/mL (≈ 10 µM); in the assay on Sporothrix Schenckii, 2 µg/mL (≈ 5.02 µM); in the assay on Asp. fum. it was 1 µg/mL (≈ 2.51 µM).
As to `CC(C)(C)C(=O)C(Oc1ccc(Cc2ccccc2)cc1)n1ccnc1` (stereo not drawn) [drawing 12], the MIC in the assay with Torulopsis glab. was 4 µg/mL (≈ 11.5 µM); in the assay with Trich. ment. [3], under 1 µg/mL; in the assay on Cand. alb., 16 µg/mL (≈ 45.9 µM); in the assay on Sporothrix Schenckii, 2 µg/mL (≈ 5.74 µM); with Asp. fum., 2 µg/mL (≈ 5.74 µM).
Turning to `CC(C)(C)C(=O)C(Oc1c(Cl)cc(-c2ccc(Br)cc2)cc1Br)n1ccnc1` (stereo not drawn) [drawing 28], the “Number … Trich. ment.” value with Trich. ment. [4] turned out to be 60. Moreover, the “Number … Aspergillus fum.” value in the assay with Aspergillus fum. turned out to be 45.
On the same counts, the results for `CC(C)(C)C(O)C(Oc1ccc(-c2ccc(Cl)cc2)cc1)n1ccnc1` (stereo not drawn) [drawing 22] are 80 and 35.
For `CC(C)(C)C(O)C(Oc1ccc(S(=O)(=O)c2ccccc2)cc1)n1ccnc1` (stereo not drawn) [drawing 24], in the assay with Trich. ment. [4], the “Number … Trich. ment.” value was determined as 60. Also, in the assay with Aspergillus fum., the “Number … Aspergillus fum.” value is listed as 70.
Take `CC(C)(C)C(O)C(Oc1ccc(S(=O)(=O)c2ccccc2)cc1)n1ccnc1` (stereo not drawn) [drawing 10]: the minimal inhibitory concentration (MIC) in the assay on Torulopsis glab. was 4 µg/mL (≈ 9.99 µM); in the assay on Trich. ment. [3] it was under 1 µg/mL; in the assay with Cand. alb., 2 to 4 µg/mL (≈ 4.99 to 9.99 µM); in the assay with Sporothrix Schenckii, 0.5 µg/mL (≈ 1.25 µM); with Asp. fum. it was under 1 µg/mL.
Take `CC(C)(C)C(=O)C(Oc1c(Cl)cc(-c2ccc(Br)cc2)cc1Cl)n1ccnc1` (stereo not drawn) [drawing 18]: in the assay with candidosis, the “Therapeutic activity, candidosis, % survival” value turned out to be 50%. The “Therapeutic activity, trichophytia, local application” value in the assay with trichophytia [1] is reported as “+++”. Further, the “Therapeutic activity, trichophytia, oral administration” value in the assay with trichophytia [2] is given as “++”.
As to `CC(C)(C)C(=O)C(Oc1ccc(S(=O)(=O)c2ccccc2)cc1)n1ccnc1` (stereo not drawn) [drawing 20], in the assay with candidosis, the “Therapeutic activity, candidosis, % survival” value was 80%. Moreover, in the assay on trichophytia [1], the “Therapeutic activity, trichophytia, local application” value is reported as “+++”. In the assay with trichophytia [2], the “Therapeutic activity, trichophytia, oral administration” value is reported as “++”.
On the same counts, the results for `CC(C)(C)C(O)C(Oc1ccc(Cc2ccccc2)cc1)n1ccnc1` (stereo not drawn) [drawing 16] are 60%, “+++” and “++”.
Regarding `CC(C)(C)C(=O)C(Oc1c(Cl)cc(-c2ccc(Br)cc2)cc1Cl)n1ccnc1` (stereo not drawn) [drawing 11], the MIC was 2 µg/mL (≈ 4.15 µM) with Torulopsis glab.; 4 µg/mL (≈ 8.3 µM) in the assay with Trich. ment. [3]; 8 µg/mL (≈ 16.6 µM) in the assay on Cand. alb.; 0.1 µg/mL (≈ 0.207 µM) with Sporothrix Schenckii; 4 µg/mL (≈ 8.3 µM) in the assay on Asp. fum..
`CC(C)(C)C(=O)C(Oc1ccc(Cc2ccccc2)cc1)n1ccnc1` (stereo not drawn) [drawing 26]: the “Number … Trich. ment.” value in the assay on Trich. ment. [4] came out at 40. The “Number … Aspergillus fum.” value in the assay with Aspergillus fum. was 60.
`CC(C)(C)C(=O)C(Oc1c(Cl)cc(-c2ccc(Br)cc2)cc1Cl)n1ccnc1` (stereo not drawn) [drawing 25]: the “Number … Trich. ment.” value with Trich. ment. [4] worked out at 90. For the same compound, in the assay on Aspergillus fum., the “Number … Aspergillus fum.” value turned out to be 40.
For the compound `COC1=CC(=O)C[C@@H](C)[C@]12Oc1c(Cl)c(OC)cc(OC)c1C2=O` [Griseofulvin], the sporocidal activity entry with spores was “not present”.
For `CC(C)(C)C(=O)C(Oc1ccc(S(=O)(=O)c2ccccc2)cc1)n1ccnc1` (stereo not drawn) [drawing 27], the “Number … Trich. ment.” value with Trich. ment. [4] is reported as 10^5. In the assay on Aspergillus fum., the “Number … Aspergillus fum.” value is 70.
